Results published in patent publication US20260210939A1, “MODIFIED OLFACTORY RECEPTORS” (GIVAUDAN SA, priority 2022, published 2026).
Each block holds one compound with its values, some of them ahead of it.

Columns and labels:
Format in all cases: cell-based
OR1N2 = target: T1, OR1N2 (Homo sapiens, UniProt Q8NGR9, T287M/V230G/W23R); experiment: CRE-luciferase assay, HEK293T cells expressing OR1N2 (wild-type / modified C-terminus)
T1 construct: Improved functional expression of modified OR-genes containing the truncated, optimized C-terminus; expressed in transfected cells; host or cells: HEK293T stably expressing human RTP1S(V227I) and RTP2(L220R)
T1 sequence (Q8NGR9 with tags, fused parts or gaps W23R/V230G/T287M): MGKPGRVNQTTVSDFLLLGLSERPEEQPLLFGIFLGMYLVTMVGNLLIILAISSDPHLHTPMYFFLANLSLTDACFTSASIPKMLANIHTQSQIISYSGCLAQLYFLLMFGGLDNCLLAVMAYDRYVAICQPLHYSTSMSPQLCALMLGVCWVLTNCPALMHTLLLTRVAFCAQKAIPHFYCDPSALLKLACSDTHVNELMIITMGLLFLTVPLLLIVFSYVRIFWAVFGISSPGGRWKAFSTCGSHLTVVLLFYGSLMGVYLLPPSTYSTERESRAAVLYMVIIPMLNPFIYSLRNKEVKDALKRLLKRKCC

OR56A4 = target: T2, OR56A4 (Homo sapiens, UniProt Q8NGH8, T299N); experiment: cell-based
T2 construct: Improved functional expression of modified OR-genes containing the truncated, optimized C-terminus; expressed in transfected cells; host or cells: HEK293T stably expressing human RTP1S(V227I) and RTP2(L220R)
T2 sequence (Q8NGH8 with tags, fused parts or gaps T299N): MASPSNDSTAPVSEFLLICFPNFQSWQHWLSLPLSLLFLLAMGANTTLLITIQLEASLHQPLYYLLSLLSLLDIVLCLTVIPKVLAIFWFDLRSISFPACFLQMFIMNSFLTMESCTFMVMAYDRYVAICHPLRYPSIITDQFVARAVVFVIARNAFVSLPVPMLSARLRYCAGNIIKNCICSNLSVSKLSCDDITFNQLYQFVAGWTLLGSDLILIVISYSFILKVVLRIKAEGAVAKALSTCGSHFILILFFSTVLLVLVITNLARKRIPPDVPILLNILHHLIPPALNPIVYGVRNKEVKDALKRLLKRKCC
Method: Activation of OR56A4 by acids of different chain length was further tested. […] Replacing the wild-type with the C-terminal sequence of the functional OR51E1 did reduce activity. However, using the optimized sequence form Examples 1-5 led to a strong signal and much lower detection threshold upon addition of all three acids.
These two improvements were further combined and the combination was tested on OR52A5 and two further class I receptors. […] In the case of OR52A4, 4-ethyloctanoic acid, which is detected at low concentrations by the human nose, is detected with a high luciferase response already at 0.19 μM by the receptor with the C-terminal modification showing very sensitive detection of this carboxylic acid by the modified class I receptor.

OR10A3 = target: T3, OR10A3 (Homo sapiens, UniProt P58181); experiment: Dose-response test of single lactones on OR10A3 (luciferase)
T3 construct: Class II OR library members with modified C-terminal domains; expressed in transfected cells
T3 sequence (P58181 with tags, fused parts or gaps): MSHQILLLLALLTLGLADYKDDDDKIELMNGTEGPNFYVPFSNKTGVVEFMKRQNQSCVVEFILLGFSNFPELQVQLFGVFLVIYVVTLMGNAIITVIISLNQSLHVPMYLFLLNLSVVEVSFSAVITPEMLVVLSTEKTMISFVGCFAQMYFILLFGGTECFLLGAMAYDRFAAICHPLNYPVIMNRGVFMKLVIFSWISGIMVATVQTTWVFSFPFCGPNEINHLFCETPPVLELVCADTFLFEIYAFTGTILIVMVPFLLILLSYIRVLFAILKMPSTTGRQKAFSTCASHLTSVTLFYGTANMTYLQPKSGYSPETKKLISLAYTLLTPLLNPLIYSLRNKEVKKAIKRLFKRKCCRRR
Method: (§1) In a subsequent de-convultion experiment, the single ingredients were tested in a dose-response test on all the identified OR. […] Thus, OR2AP1 and OR2J2 are particularly strongly activated by the long-chain dodecalactone gamma, while OR10A3 is very sensitive to several longer chain lactones. […] Among the five OR, OR10A3 is the most sensitive.

OR2J2 = target: T4, OR2J2 (Homo sapiens, UniProt O76002, A146V/A218T/A302I/G300K/H297E/H74Y); experiment: Dose-response test of single lactones on OR2J2
T4 construct: expressed in transfected cells; transient transfection of pcDNA3.1(+) OR plasmid
T4 sequence (O76002 with tags, fused parts or gaps H74Y/A146V/A218T/H297E/G300K/A302I limits assumed): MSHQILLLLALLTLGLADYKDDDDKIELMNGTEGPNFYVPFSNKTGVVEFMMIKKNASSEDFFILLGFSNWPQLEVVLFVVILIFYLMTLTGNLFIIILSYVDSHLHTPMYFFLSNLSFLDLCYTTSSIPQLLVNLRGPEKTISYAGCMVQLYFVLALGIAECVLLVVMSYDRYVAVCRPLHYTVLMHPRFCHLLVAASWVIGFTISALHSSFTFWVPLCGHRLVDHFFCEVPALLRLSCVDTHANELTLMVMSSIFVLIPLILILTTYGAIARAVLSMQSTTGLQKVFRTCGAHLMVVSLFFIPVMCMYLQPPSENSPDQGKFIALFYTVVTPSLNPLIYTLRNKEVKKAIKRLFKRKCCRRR
Method: as §1

OR10J1(M51I, I92M) = target: T5, OR10J1(M51I, I92M) (Homo sapiens, UniProt P30954, I103M/M62I); experiment: Dose-response test of single lactones on OR10J1(M51I, I92M)
T5 construct: expressed in transfected cells; transient transfection of pcDNA3.1(+) OR plasmid
T5 sequence (P30954 with tags, fused parts or gaps M62I/I103M): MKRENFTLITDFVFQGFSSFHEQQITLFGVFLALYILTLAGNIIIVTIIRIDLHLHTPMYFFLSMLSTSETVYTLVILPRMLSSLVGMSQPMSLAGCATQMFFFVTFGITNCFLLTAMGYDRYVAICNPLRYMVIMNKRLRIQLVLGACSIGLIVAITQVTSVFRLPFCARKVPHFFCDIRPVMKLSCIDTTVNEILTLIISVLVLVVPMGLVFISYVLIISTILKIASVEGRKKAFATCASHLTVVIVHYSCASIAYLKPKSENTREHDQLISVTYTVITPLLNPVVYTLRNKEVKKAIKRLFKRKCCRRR
Method: as §1

[1] = target: T6, OR10A6(A117V, V140G, L287P) (Homo sapiens, UniProt Q8NH74, A117V/L287P/V140G); experiment: Dose-response test of single lactones on OR10A6(A117V, V140G, L287P)
T6 construct: expressed in transfected cells; transient transfection of pcDNA3.1(+) OR plasmid
T6 sequence (Q8NH74 with tags, fused parts or gaps A117V/V140G/L287P limits assumed): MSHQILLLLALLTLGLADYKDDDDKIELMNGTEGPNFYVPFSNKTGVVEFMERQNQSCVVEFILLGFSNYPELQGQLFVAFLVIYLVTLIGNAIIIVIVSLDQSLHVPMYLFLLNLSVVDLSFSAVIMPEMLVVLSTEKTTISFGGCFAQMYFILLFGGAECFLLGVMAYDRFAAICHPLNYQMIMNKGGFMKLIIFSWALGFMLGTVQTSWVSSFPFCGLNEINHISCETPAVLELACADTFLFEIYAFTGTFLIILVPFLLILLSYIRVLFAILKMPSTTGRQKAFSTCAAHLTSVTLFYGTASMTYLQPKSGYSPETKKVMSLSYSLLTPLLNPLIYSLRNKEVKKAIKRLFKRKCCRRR
Method: as §1

OR2AP1 = target: T7, OR2AP1 (Homo sapiens, UniProt Q8NGE2); experiment: Dose-response test of single lactones on OR2AP1
T7 construct: expressed in transfected cells; transient transfection of pcDNA3.1(+) OR plasmid
T7 sequence (Q8NGE2 with tags, fused parts or gaps limits assumed): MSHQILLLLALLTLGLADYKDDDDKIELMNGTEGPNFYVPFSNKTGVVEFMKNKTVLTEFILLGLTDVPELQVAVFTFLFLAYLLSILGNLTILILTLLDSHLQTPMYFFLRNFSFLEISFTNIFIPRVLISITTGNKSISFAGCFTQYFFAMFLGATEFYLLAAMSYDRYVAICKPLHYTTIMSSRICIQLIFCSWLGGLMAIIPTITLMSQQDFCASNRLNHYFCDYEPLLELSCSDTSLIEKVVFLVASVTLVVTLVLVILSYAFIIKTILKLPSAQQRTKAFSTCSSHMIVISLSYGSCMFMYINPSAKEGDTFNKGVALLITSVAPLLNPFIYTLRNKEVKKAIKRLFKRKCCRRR
Method: as §1

OR5A1 = target: T8, OR5A1 (Homo sapiens, UniProt Q8NGJ0, I300V); experiment: CRE-luciferase assay, HEK293T cells expressing OR5A1 (wild-type / modified C-terminus)
T8 construct: Improved functional expression of modified OR-genes containing the truncated, optimized C-terminus; expressed in transfected cells; host or cells: HEK293T stably expressing human RTP1S(V227I) and RTP2(L220R)
T8 sequence (Q8NGJ0 with tags, fused parts or gaps I300V): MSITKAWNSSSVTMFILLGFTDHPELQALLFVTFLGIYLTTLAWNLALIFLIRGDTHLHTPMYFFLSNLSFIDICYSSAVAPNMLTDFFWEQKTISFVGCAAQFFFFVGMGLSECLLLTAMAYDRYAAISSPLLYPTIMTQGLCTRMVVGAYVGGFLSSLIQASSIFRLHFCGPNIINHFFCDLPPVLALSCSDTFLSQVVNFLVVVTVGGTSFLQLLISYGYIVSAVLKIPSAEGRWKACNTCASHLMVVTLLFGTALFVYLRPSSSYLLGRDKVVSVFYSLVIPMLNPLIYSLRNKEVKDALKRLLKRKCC

Structure (SMILES): O=C1CCCCCCCC=CCCCCCCO1 [Ambrettolide]
- Comments on efficacy (OR1N2): 1.5
- Detection threshold; concentration for 2-fold induction (OR1N2; changed C-term. SEQ ID NO: 86): 0.26 µM
- Fold-improvement potency (OR1N2; changed C-term. vs wild-type): 1.5
- Fold-improvement threshold (OR1N2; changed C-term. vs wild-type): 5.2
- Detection threshold; concentration for 2-fold induction (OR1N2; wild-type): 1.33 µM

- Fold-improvement potency (OR56A4; changed C-term. vs wild-type): 5.1
- EC50 (OR56A4; wild-type): 114 µM
- activation of the wild-type (OR56A4; wild-type OR56A4): activated at high concentration
Structure (SMILES): CCCCCCCCCCC(=O)O [Undecanoic acid]

Structure (SMILES): CCCCCC1CCCC(=O)O1 (centres unmarked) [Decalactone delta]
- EC10, concentration for 10-fold OR activation (OR10A3): 2.10 μM
- EC2 (concentration for 2-fold luciferase induction) (OR2J2): 98.89 µM
- EC2 (concentration for 2-fold luciferase induction) (OR10J1(M51I, I92M)): 31.73 µM
- EC2 (concentration for 2-fold luciferase induction) [1]: 5.31 µM

Structure (SMILES): CCCCC1CCC(=O)O1 (centres unmarked) [Octalactone gamma]
- EC10, concentration for 10-fold OR activation (OR10A3): 26.93 μM
- EC2 (concentration for 2-fold luciferase induction) (OR2J2): 65.20 µM
- EC2 (concentration for 2-fold luciferase induction) (OR10J1(M51I, I92M)): 101.73 µM

Structure (SMILES): CCCCCCCCC1CCC(=O)O1 (centres unmarked) [Dodecalactone gamma]
- EC2 (concentration for 2-fold luciferase induction) (OR2AP1): 1.31 µM
- EC10, concentration for 10-fold OR activation (OR10A3): 0.85 μM
- EC2 (concentration for 2-fold luciferase induction) (OR2J2): 1.41 µM
- EC2 (concentration for 2-fold luciferase induction) (OR10J1(M51I, I92M)): 5.31 µM
- EC2 (concentration for 2-fold luciferase induction) [1]: 0.48 µM

Structure (SMILES): CC(=O)/C=C/C1=C(C)CCCC1(C)C [Beta-ionone]
- Comments on efficacy (OR5A1): 4-fold lower
- Detection threshold; concentration for 2-fold induction (OR5A1; changed C-term. SEQ ID NO: 86): 3.2 µM
- Fold-improvement potency (OR5A1; changed C-term. vs wild-type): 1.8
- Fold-improvement threshold (OR5A1; changed C-term. vs wild-type): 5.9
- Detection threshold; concentration for 2-fold induction (OR5A1; wild-type): 19.1 µM
- EC50 (OR5A1; wild-type): 5.5 µM
